US8461297B2, “Cytoplasmic malate dehydrogenase (MDH1) targeted treatment for neurodegenerative diseases” (Ramot at Tel-Aviv University, Ltd., priority 2007, dated 2013)
Ends that are not written are not given here. 5,6‑TAMRA = 5,6-carboxytetramethylrhodamine fluorescent label at the N-terminus

What was measured:
Assay type in all cases: cell-based
[1] = target: T1, G93A-hSOD1/cytMDH complex (Homo sapiens, UniProt P00441, G94A); assay: FACS-based FRET test of peptides competing for the G93A-hSOD1-CFP/cytMDH-YFP interaction in co-transfected NSC-34 cells; conditions: myc-tagged peptide expression plasmid co-transfected at 1:1:1 ratio, excitation 405 nm, emission 530 nm
T1 construct: expressed in transfected cells; host or cells: NSC-34 cells (transient co-transfection)
Text: The screening method was based on the fluorescence resonance energy transfer (FRET) system between cyan fluorescence protein (CFP) chimera proteins and yellow fluorescence protein (YFP) chimera proteins. The present inventors designed and used this system to identify the specific interaction of G93A SOD1 with MDH1 so as to identify a motif within MDH1 that is critical for the G93A SOD1-MDH1 interaction. The agents tested were peptides derived from MDH1.
A Myc-tagged peptide library expressing small fragments of the MDH1 was prepared. MDH1 cDNA was digested with AluI or/and DpnI and the fragments were cloned so that each peptide was placed in the correct reading frame of the original protein and in frame to the human myc tag sequence. G93A SOD1-CFP and MDH1-YFP expression plasmids were transfected into NSC-34 cells with and without the myc-tagged library.
The hypothesis is that the specific MDH1-derived peptides comprising the interacting motif will compete with MDH1 for the G93A SOD1-MDH1 interaction site. In such case, the CFP and YFP fluorescence of the G93A SOD1-CFP and MDH1-YFP will still be present, but the FRET signal will be diminished. The screening studies were performed using a cell sorter (FACS) with 405 nm excitation laser and a 530/30 nm emission filter. […] RNA was extracted from the sorted cells, converted into cDNA and subjected to PCR amplification in order to amplify the peptides DNA sequences.
The DNA sequence from the sorted cells was re-cloned. Four clones were obtained, one corresponding to amino acids 14-27 of the cytMDH protein GQIAHSLLYSIGNG (SEQ ID NO: 2) and three corresponding to amino acids 217-239 of the cytMDH protein […] (SEQ ID NO: 1). The identified clones were re-analyzed in the FACS-based system to verify their ability to compete for the G93A SOD1-MDH1 interaction at 1:1:1 ratio levels. Thus, 5*10^6 NSC-34 cells were transfected with equal amounts of G93A-hSOD1-CFP and cytMDH-YFP and the suspected myc-tagged cytMDH peptide-expressing plasmids.
Ability of the 217-239 peptide to disrupt the G93A-hSOD1-cytMDH1 complex was tested by co-transfection into NSC-34 cells of constructs encoding myc-tagged 217-239 and the FRET-enabled G93A-hSOD1/cytMDH proteins, followed by FACS analysis to measure FRET.

[2] = tested on: G93A-hSOD1-GFP-expressing NSC-34 cells; assay: Cell survival (methylene blue assay) under rotenone or low-glucose challenge, G93A-hSOD1-GFP cells
Protocol: (§1) The functional significance of the loss of such interaction was assessed by alleviation of the rotenone (a mitochondrial inhibitor) or low-glucose challenge in NSC-34 clones expressing an inducible form of the mutant G93A SOD1-GFP as monitored by cell survival. The […] (SEQ ID NO: 1) peptide was synthesized (SBS Gentech Beijing) with 5,6-TAMRA modification (to allow detection) at the N-terminus. The TAMRA-modified peptide was dissolved in 10% acetic acid and added to cell culture medium in culture medium containing 1% ethanol. Thus, 15,000 cells (WT-hSOD1 or G93A-hSOD1) seeded in each well of a 96-well plate in DMEM, 10% serum. 24 hours later, cells were incubated with 1*10^-6M cytMDH peptide (or acetic acid/ethanol vehicle) for 4 h without serum. 1-10 micromole/L Rotenone in DMEM, 10% serum was then added for 24 hours, or medium replaced with low glucose (1 mg/ml) in DMEM with 5% serum for 72 hours. Cell survival was then assessed. It was expected that if the identified peptide interaction is resolving the gain of toxic interaction of G93A SOD1-GFP, then survival of the cells upon rotenone- or low-glucose challenge will improve.
(§2) 15,000 cells (WT-hSOD1 or G93A-hSOD1) were seeded in each well of a 96 well-plate in DMEM, 10% serum. 24 hours later, the cells were incubated with 3 mM octanoic acid with and without 1-10 micromole/L rotenone in DMEM, 10% serum for 24 hours. Or, cells were incubated with 3 mM octanoic acid and medium replaced with regular ([…]) or low (1 mg/ml) glucose in DMEM with 5% serum for 72 hours. Cell survival was then assessed. It was expected that if the gain of toxic interaction of G93A SOD1-GFP is due to inhibition of the malate-aspartate shuttle, octanoic acid will provide an alternative energy source through the alternative shunt and the survival of the cells upon rotenone or low-glucose challenge will improve.
(§3) Cell survival was assessed by the methylene blue assay. Cells were fixed with 4% formaldehyde solution for 1 h, then washed with 0.1M sodium borate buffer pH8.5, stained with 1% methylene blue for 20 min and washed with water. Cell-bound dye was eluted with 200 μl of 0.1M HCl. The optical density was assessed at 595 nm in ELISA plate reader.
(§4) The […] (SEQ ID NO: 1) peptide was synthesized (SBS Gentech Beijing) with 5,6-TAMRA modification (to allow detection) at the N-terminus, dissolved in 10% acetic acid, and diluted in cell culture medium containing 1% ethanol. Thus, 15,000 cells (WT-hSOD1 or G93A-hSOD1) seeded in each well of 96 wells plate in DMEM, 10% serum and doxycline (to induce expression of the hSOD1 proteins). 24 hours later, medium was replaced with serum free DMEM, and cells were incubated with 1 micromol/liter of the TAMRA-labeled […] peptide or vehicle (1% acetic acid/ethanol) for 4 hours. […] Cell survival was then assessed.

[3] = tested on: WT-hSOD1-GFP-expressing NSC-34 cells; assay: Cell survival (methylene blue assay) under rotenone or low-glucose challenge, WT-hSOD1-GFP cells
Protocol: as §1, §2, §3, §4

T1 sequence (P00441 2-154 G94A limits assumed, one chain of several): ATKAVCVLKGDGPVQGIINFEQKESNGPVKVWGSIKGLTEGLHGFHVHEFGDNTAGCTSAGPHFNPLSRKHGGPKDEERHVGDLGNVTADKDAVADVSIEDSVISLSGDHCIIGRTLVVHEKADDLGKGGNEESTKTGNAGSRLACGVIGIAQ

| Molecule | FRET signal of G93A-hSOD1-CFP/cytMDH-YFP (disruption of the complex) [1] | FRET signal of G93A-hSOD1-CFP/cytMDH-YFP (disruption of the complex) ([1]; listed as peptide 14-27) | effects of rotenone on cell viability in the presence of peptide ([2]; 1 micromol/liter TAMRA-labeled peptide 4 h, then 0.5 micromol/L rotenone 24 h, G93A-hSOD1-GFP cells) | effects of low glucose on cell viability in the presence of peptide ([2]; 1 micromol/liter TAMRA-labeled peptide, low glucose (1 mg/ml) DMEM, 5% serum, 72 h, G93A-hSOD1 cells) | FRET signal of G93A-hSOD1-CFP/cytMDH-YFP (disruption of the complex) ([1]; listed as SEQ ID NO: 1) | FRET signal of G93A-hSOD1-CFP/cytMDH-YFP (disruption of the complex) ([1]; listed as peptide 217-239) | effects of rotenone on cell viability in the presence of peptide ([3]; 1 micromol/liter TAMRA-labeled peptide 4 h, then 0.5 micromol/L rotenone 24 h, WT-hSOD1-GFP cells) | effects of low glucose on cell viability in the presence of peptide ([3]; 1 micromol/liter TAMRA-labeled peptide, low glucose (1 mg/ml) DMEM, 5% serum, 72 h, WT-hSOD1 cells) | effects of low glucose on cell viability in the presence of octanoic acid ([2]; 3 mM octanoic acid, low (1 mg/ml) glucose DMEM, 5% serum, 72 h, G93A-hSOD1-GFP cells) | effects of rotenone on cell viability in the presence of octanoic acid ([2]; 3 mM octanoic acid, rotenone 1.25 micromol/liter for 24 h, G93A-hSOD1-GFP cells) | effects of low glucose on cell viability in the presence of octanoic acid ([3]; 3 mM octanoic acid, low (1 mg/ml) glucose DMEM, 5% serum, 72 h, WT-hSOD1-GFP cells) | effects of rotenone on cell viability in the presence of octanoic acid ([3]; 3 mM octanoic acid, rotenone 1.25 micromol/liter for 24 h, WT-hSOD1-GFP cells) |
| --- | --- | --- | --- | --- | --- | --- | --- | --- | --- | --- | --- | --- |
| GQIAHSLLYSIGNG (listed as Mus musculus) [14-27 peptide] | found not to inhibit the interaction | positive FRET |  |  |  |  |  |  |  |  |  |  |
| SWLKGEFITTVQQRGAAVIKARK ({5,6‑TAMRA}-SWLKGEFITTVQQRGAAVIKARK; listed as Mus musculus) [217-239 peptide, amino acids 217-239 of the cytMDH protein] | blocked FRET |  | greatly diminished | significantly diminished | prevented the FRET | negative FRET | not | not |  |  |  |  |
| CCCCCCCC(=O)O [octanoic acid, reference compound] |  |  |  |  |  |  |  |  | greatly diminished | greatly diminished | not | not |
